In one experiment the target is Nav1.7 (Homo sapiens, UniProt Q15858). It is filed as cell-based.
The next experiment deals with Nav1.8 (Homo sapiens, UniProt Q9Y5Y9). It is filed as cell-based. The following applies: CHO-K1, read-out: % inhibition at 300 μM.

Consider 2 compounds from publication PMC8643097 (British journal of pharmacology, 2021).

The term IC50 denotes the concentration that inhibits the measured activity by half. Low values mean higher potency, high ones lower potency. One may read the inhibition as the drop in the measured response relative to a control, in per cent.

Each structure is given as a SMILES string.

Chain of Nav1.7 (Q15858 whole entry): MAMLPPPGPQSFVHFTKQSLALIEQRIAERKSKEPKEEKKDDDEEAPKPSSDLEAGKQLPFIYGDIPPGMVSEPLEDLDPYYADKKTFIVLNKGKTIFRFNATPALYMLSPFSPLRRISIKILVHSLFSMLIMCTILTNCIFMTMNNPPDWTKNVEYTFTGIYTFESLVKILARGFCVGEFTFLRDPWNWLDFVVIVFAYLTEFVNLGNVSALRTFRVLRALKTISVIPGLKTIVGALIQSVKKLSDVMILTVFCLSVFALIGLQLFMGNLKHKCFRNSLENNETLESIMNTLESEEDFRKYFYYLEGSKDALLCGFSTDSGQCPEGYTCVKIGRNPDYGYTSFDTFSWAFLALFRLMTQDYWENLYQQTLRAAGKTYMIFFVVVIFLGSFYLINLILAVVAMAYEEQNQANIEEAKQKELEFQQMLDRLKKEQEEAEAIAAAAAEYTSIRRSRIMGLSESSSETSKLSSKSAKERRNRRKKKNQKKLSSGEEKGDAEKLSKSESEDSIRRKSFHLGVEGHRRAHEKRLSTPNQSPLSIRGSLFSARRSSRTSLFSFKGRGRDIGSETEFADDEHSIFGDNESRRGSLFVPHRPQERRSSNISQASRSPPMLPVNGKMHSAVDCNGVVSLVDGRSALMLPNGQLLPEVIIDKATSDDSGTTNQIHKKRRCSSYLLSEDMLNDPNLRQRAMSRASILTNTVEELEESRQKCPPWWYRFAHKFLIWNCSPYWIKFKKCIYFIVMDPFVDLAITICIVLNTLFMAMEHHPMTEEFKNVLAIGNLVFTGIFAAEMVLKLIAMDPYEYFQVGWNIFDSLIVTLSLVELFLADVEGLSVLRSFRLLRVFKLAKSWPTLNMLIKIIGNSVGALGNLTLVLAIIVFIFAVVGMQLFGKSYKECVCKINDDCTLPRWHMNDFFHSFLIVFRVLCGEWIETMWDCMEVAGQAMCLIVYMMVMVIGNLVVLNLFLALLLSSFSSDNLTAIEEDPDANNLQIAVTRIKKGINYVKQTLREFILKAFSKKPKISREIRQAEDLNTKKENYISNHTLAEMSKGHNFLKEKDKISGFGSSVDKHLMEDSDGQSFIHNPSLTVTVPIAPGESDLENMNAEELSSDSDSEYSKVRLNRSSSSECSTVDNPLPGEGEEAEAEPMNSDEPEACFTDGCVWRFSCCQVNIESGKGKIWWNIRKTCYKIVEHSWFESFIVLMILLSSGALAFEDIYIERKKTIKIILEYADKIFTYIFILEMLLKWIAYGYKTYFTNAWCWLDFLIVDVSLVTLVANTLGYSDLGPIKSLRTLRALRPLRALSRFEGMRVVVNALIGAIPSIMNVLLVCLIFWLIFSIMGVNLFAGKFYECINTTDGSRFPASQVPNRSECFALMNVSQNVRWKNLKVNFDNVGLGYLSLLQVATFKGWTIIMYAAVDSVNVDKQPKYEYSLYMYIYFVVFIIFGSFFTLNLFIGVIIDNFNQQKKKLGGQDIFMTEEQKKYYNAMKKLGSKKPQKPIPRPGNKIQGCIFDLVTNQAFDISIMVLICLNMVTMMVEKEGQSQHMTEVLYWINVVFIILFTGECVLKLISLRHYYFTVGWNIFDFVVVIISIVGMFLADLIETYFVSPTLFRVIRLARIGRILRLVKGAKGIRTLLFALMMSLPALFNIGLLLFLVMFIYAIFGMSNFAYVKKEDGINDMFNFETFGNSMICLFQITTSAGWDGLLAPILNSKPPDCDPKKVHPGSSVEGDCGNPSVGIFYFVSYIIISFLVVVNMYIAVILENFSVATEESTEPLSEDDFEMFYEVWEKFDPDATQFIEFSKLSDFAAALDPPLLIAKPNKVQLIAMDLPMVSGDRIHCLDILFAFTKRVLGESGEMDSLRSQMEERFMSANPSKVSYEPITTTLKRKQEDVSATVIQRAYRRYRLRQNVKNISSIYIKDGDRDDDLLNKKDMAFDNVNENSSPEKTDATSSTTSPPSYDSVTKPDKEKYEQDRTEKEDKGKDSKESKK
Chain of Nav1.8 (Q9Y5Y9 whole entry): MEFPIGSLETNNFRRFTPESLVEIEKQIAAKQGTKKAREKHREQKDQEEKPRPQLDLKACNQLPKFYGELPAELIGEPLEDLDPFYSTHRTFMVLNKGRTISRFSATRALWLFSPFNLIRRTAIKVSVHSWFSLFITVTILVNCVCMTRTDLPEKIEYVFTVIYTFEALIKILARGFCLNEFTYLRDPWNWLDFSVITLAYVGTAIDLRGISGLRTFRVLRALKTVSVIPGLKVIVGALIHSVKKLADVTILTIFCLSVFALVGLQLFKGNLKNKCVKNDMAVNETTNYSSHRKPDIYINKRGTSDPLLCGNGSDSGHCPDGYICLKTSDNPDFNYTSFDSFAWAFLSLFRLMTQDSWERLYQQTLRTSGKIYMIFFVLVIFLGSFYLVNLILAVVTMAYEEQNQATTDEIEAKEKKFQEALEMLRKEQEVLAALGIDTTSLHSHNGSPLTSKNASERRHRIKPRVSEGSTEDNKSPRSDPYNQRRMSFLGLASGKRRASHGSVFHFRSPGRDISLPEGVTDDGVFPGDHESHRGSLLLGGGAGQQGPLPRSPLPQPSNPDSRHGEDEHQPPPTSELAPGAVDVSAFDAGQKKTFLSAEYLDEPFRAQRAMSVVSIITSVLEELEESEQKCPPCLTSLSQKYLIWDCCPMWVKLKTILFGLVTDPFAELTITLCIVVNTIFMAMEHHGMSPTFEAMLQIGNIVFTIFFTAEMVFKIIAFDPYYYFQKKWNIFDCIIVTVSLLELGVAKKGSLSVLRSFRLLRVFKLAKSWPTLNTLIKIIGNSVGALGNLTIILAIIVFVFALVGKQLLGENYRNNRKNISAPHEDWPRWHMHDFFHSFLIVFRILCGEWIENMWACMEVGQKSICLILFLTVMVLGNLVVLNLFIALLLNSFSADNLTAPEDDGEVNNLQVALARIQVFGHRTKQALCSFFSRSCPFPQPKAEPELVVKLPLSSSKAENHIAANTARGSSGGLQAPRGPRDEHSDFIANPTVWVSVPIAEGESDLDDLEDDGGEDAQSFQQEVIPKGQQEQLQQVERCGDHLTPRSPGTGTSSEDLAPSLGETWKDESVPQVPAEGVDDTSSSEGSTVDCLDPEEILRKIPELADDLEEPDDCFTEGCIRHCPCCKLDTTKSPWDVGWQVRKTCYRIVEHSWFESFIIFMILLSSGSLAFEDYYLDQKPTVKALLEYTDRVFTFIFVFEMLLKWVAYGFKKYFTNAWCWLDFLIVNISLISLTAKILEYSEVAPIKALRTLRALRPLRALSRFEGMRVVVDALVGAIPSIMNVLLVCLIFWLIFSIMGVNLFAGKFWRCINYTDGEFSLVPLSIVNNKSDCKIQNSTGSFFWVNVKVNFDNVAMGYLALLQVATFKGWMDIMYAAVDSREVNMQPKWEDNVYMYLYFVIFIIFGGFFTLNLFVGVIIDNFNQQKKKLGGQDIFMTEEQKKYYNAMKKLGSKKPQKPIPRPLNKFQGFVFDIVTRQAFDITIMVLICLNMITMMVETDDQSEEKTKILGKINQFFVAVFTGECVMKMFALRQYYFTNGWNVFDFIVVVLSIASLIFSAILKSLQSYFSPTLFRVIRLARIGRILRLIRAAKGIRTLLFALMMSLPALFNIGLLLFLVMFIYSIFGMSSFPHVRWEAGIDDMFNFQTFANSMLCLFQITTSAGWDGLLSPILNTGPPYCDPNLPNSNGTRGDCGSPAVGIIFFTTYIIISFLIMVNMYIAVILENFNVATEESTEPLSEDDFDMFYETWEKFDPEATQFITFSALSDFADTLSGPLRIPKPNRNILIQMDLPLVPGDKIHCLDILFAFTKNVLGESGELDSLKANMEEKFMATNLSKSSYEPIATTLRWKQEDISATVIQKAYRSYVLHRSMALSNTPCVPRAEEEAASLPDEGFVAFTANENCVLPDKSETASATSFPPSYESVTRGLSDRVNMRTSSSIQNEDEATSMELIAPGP
Chain of Nav1.8 (Q9NY72 23-215 partner): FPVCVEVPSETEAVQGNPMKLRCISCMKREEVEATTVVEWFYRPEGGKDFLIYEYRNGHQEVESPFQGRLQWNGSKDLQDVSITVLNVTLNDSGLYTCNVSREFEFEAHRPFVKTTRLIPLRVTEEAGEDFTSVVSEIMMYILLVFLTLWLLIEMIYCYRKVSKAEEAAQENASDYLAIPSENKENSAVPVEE

On to `CCC(C(=O)Nc1c(C)cccc1C)[N+]1(CC)CCCCC1` (stereo not drawn) [BW-031, 1-(1-(2,6-dimethylphenylamino)-1-oxobutan-2-yl)-1-ethylpiperidinium], for which the midpoint of inhibition on Nav1.7, the IC50, lay at 9.5 µM. The inhibition at 300 µM on Nav1.8 stood at 30 ± 18%.

The compound `CC[N+](CC)(CC)CC(=O)Nc1c(C)cccc1C` [QX-314] came in with an IC50 against Nav1.7 of 66 µM.
